Results as given in patent publication US20250368633A1, “AZEPINE FUSED RING COMPOUND AS RIPK1 INHIBITOR AND USE THEREOF” (ARTIVILA BIOPHARMA, priority 2022, published 2025).

Tests used:
RIPK1 kinase = biological target: T1, RIPK1 kinase (Homo sapiens, UniProt Q13546); assay: In vitro RIPK1 kinase activity assay (ADP-Glo), inhibition by compounds at 1 μM; assay type: biochemical; conditions: compound 1 μM; ATP 10 μM; MBP substrate 100 μg/mL; read-out: RIPK1 kinase activity inhibition rate range
T1 construct: purchased Promega VA7593
T1 sequence (Q13546 1-671): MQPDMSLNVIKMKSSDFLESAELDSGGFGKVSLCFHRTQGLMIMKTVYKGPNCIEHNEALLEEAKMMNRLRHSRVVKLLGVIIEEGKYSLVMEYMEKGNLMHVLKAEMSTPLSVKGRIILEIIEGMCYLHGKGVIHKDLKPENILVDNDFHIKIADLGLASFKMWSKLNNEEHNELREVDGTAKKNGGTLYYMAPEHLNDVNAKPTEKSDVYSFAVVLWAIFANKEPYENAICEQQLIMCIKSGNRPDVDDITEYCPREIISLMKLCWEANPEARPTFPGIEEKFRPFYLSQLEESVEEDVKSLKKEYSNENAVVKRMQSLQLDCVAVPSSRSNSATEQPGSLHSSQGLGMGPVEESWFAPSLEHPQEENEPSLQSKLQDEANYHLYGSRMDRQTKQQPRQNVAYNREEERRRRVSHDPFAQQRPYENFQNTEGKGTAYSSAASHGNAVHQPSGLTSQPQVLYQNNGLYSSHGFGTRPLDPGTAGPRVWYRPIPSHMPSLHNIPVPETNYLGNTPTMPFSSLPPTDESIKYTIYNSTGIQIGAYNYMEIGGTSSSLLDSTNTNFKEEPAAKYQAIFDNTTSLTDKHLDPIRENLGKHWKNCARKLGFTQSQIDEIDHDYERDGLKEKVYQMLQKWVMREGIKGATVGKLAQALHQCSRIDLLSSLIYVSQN
Summary of the method: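 Read by ADP-Glo chemiluminescence as percent inhibition: RIPK1 kinase, 15-min room-temperature compound preincubation, then 1-h reaction with MBP (100 μg/mL final) and ATP (10 μM final). Enzyme level was set by titration.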

U937 cells = assay: Inhibition rate of compound (1 μM) on necroptosis of U937 cells (TSZ-induced, CellTiter-Glo); assay type: cell-based; conditions: TSZ (hTNF-α, SM-164, Z-VAD-FMK) 20 hours
Summary of the method: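 Percent inhibition comes from ATP luminescence (CellTiter-Glo), referenced to wells without TSZ and wells with TSZ alone. The compound was added to U937 cells 15 min ahead of a TNF-α/SM-164/Z-VAD-FMK mix, followed by 20 h culture at 37° C, 5% CO2.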

inhibition at 1 µM (RIPK1 kinase) [%] | SMILES | Inhibition rate range of compounds (1 μM) on U937 cell necroptosis (U937 cells)
≥ 75 | CN1C(=O)[C@@H](NC(=O)C(=O)NCCc2ccccc2)COc2ccc(C#CCN3CCC(O)CC3)cc21 [Example 81, (S)—N^1-(7-(3-(4-hydroxypiperidin-1-yl)prop-1-yn-1-yl)-5-methyl-4-oxo-2,3,4,5-tetrahydrobenzo[b][1,4]oxazepin-3-yl)-N^2-phenethyloxalamide] | A (A: ≥90%)
≥ 75 | CN1C(=O)[C@@H](NC(=O)C(=O)NCCc2ccccc2)COc2ccc(C#CCN3C(=O)CCC3=O)cc21 [Example 84, (S)—N^1-(7-(3-(2,5-dioxopyrrolidin-1-yl)prop-1-yn-1-yl)-5-methyl-4-oxo-2,3,4,5-tetrahydrobenzo[b][1,4]oxazepin-3-yl)-N^2-phenethyloxalamide] | A (A: ≥90%)
≥ 75 | CN1C(=O)[C@@H](NC(=O)C(=O)NCCc2ccccc2)COc2ccc(C#CCN3CCNC(=O)C3)cc21 [Example 85, (S)—N^1-(5-methyl-4-oxo-7-(3-(3-oxopiperazin-1-yl)prop-1-yn-1-yl)-2,3,4,5-tetrahydrobenzo[b][1, 4]oxazepin-3-yl)-N^2-phenethyloxalamide] | B (B: 50-89%)
50 to 74 | CN1C(=O)[C@@H](NC(=O)C(=O)NCCc2ccccc2)COc2ccc(C#CCNC(=O)OC(C)(C)C)cc21 [Example 86, tert-butyl (S)-(3-(5-methyl-4-oxo-3-(2-oxo-2-(phenethylamino)acetamido)-2,3,4,5-tetrahydrobenzo[b][1,4]oxazepin-7-yl)prop-2-yn-1-yl)carbamate] | A (A: ≥90%)
≥ 75 | CN1C(=O)[C@@H](NC(=O)C(=O)NCCc2ccccc2)COc2ccc(C#CCNC(=O)CO)cc21 [Example 88, (S)—N^1-(7-(3-(2-hydroxyacetamido)prop-1-yn-1-yl)-5-methyl-4-oxo-2,3,4,5-tetrahydrobenzo[b][1, 4]oxazepin-3-yl)-N^2-phenethyloxalamide] | A (A: ≥90%)
50 to 74 | C=CC(=O)NCC#Cc1ccc2c(c1)N(C)C(=O)[C@@H](NC(=O)C(=O)NCCc1ccccc1)CO2 [Example 89, (S)—N^1-(7-(3-acrylamidoprop-1-yn-1-yl)-5-methyl-4-oxo-2,3,4,5-tetrahydrobenzo[b][1,4]oxazepin-3-yl)-N^2-phenethyloxalamide] | A (A: ≥90%)
≥ 75 | CN1C(=O)[C@@H](NC(=O)C(=O)NCCc2ccccc2)COc2ccc(C#CC3CN(C=O)C3)cc21 [Example 91, (S)—N^1-(7-((1-formylazetidin-3-yl)ethynyl)-5-methyl-4-oxo-2,3,4,5-tetrahydrobenzo[b][1,4]oxazepin-3-yl)-N^2-phenethyloxalamide] | A (A: ≥90%)
50 to 74 | CN1C(=O)[C@@H](NC(=O)C(=O)NCCc2ccccc2)COc2ccc(C#CC3(O)CN(C=O)C3)cc21 [Example 92, (S)—N^1-(7-((1-formyl-3-hydroxyazetidin-3-yl)ethynyl)-5-methyl-4-oxo-2,3,4,5-tetrahydrobenzo[b][1,4]oxazepin-3-yl)-N^2-phenethyloxalamide] | A (A: ≥90%)
≥ 75 | CCOC(=O)CCC#Cc1ccc2c(c1)N(C)C(=O)[C@@H](NC(=O)C(=O)NCCc1ccccc1)CO2 [Example 94, ethyl (S)-5-(5-methyl-4-oxo-3-(2-oxo-2-(phenethylamino)acetamido)-2,3,4,5-tetrahydrobenzo[b][1,4]oxazepin-7-yl) pent-4-ynoate] | B (B: 50-89%)
≥ 75 | CN1C(=O)[C@@H](NC(=O)C(=O)NCc2ccccc2)COc2ccc(C#CCn3ccnc3)cc21 [Example 104, (S)—N^1-(7-(3-(1H-imidazol-1-yl)prop-1-yn-1-yl)-5-methyl-4-oxo-2,3,4,5-tetrahydrobenzo[b][1,4]oxazepin-3-yl)-N^2-benzyloxalamide] | A (A: ≥90%)
≥ 75 | CN1C(=O)[C@@H](NC(=O)C(=O)NCc2ccccc2)COc2ccc(C#CCN3CCOCC3)cc21 [Example 106, (S)—N^1-benzyl-N^2-(5-methyl-7-(3-morpholinoprop-1-yn-1-yl)-4-oxo-2,3,4,5-tetrahydrobenzo[b][1, 4]oxazepin-3-yl)oxalamide] | B (B: 50-89%)
50 to 74 | CN1C(=O)[C@@H](NC(=O)C(=O)NCc2ccccc2)COc2ccc(C#CCN3CCNC(=O)C3)cc21 [Example 107, (S)—N^1-benzyl-N^2-(5-methyl-4-oxo-7-(3-(3-oxopiperazin-1-yl)prop-1-yn-1-yl)-2,3,4,5-tetrahydrobenzo[b][1,4]oxazepin-3-yl)oxalamide] | A (A: ≥90%)
≥ 75 | CN1C(=O)[C@H](NC(=O)C(=O)NCCc2cccc(F)c2)COc2ccc(C#CCCO)cc21 [Example 109, (R)—N^1-(3-fluorophenethyl)-N^2-(7-(4-hydroxybut-1-yn-1-yl)-5-methyl-4-oxo-2,3,4,5-tetrahydrobenzo[b][1,4]oxazepin-3-yl)oxalamide] | A (A: ≥90%)
≥ 75 | CN1C(=O)[C@@H](NC(=O)C(=O)NCCc2cccc(F)c2)COc2ccc(C#CC3(O)COC3)cc21 [Example 110, (S)—N^1-(3-fluorophenethyl)-N^2-(7-((3-hydroxyoxetan-3-yl)ethynyl)-5-methyl-4-oxo-2,3,4,5-tetrahydrobenzo[b][1,4]oxazepin-3-yl)oxalamide] | A (A: ≥90%)
≥ 75 | CN1C(=O)[C@@H](NC(=O)C(=O)NCCc2cccc(F)c2)COc2ccc(C#CCN3CC[C@@H](O)C3)cc21 [Example 114, N^1-(3-fluorophenethyl)-N^2-((S)-7-(3-((R)-3-hydroxypyrrolidin-1-yl)prop-1-yn-1-yl)-5-methyl-4-oxo-2,3,4,5-tetrahydrobenzo[b][1,4]oxazepin-3-yl)oxalamide] | A (A: ≥90%)
50 to 74 | CN1C(=O)[C@@H](NC(=O)C(=O)NCCc2cccc(F)c2)COc2ccc(C#CCN3CC[C@H](O)C3)cc21 [Example 115, N^1-(3-fluorophenethyl)-N^2-((S)-7-(3-((S)-3-hydroxypyrrolidin-1-yl)prop-1-yn-1-yl)-5-methyl-4-oxo-2,3,4,5-tetrahydrobenzo[b][1,4]oxazepin-3-yl)oxalamide] | A (A: ≥90%)
50 to 74 | CN1C(=O)[C@@H](NC(=O)C(=O)NCCc2cccc(F)c2)COc2ccc(C#Cc3cccnc3)cc21 [Example 117, (S)—N^1-(3-fluorophenethyl)-N^2-(5-methyl-4-oxo-7-(pyridin-3-ylethynyl)-2,3,4,5-tetrahydrobenzo[b][1,4]oxazepin-3-yl)oxalamide] | A (A: ≥90%)
≥ 75 | CN1C(=O)[C@@H](NC(=O)C(=O)NCCc2cccc(F)c2)COc2ccc(C#CCN3CCC(=O)CC3)cc21 [Example 118, (S)—N^1-(3-fluorophenethyl)-N^2-(5-methyl-4-oxo-7-(3-(4-oxopiperidin-1-yl)prop-1-yn-1-yl)-2,3,4,5-tetrahydrobenzo[b][1,4]oxazepin-3-yl)oxalamide] | A (A: ≥90%)
≥ 75 | CN1C(=O)[C@@H](NC(=O)C(=O)NCCc2cccc(F)c2)COc2ccc(C#CCN3CCOCC3)cc21 [Example 120, (S)—N^1-(3-fluorophenethyl)-N^2-(5-methyl-7-(3-morpholinoprop-1-yn-1-yl)-4-oxo-2,3,4,5-tetrahydrobenzo[b][1,4]oxazepin-3-yl)oxalamide] | A (A: ≥90%)
≥ 75 | CN1C(=O)[C@@H](NC(=O)C(=O)NCCc2cccc(F)c2)COc2ccc(C#CCN3C(=O)CCC3=O)cc21 [Example 122, (S)—N^1-(7-(3-(2,5-dioxopyrrolidin-1-yl)prop-1-yn-1-yl)-5-methyl-4-oxo-2,3,4,5-tetrahydrobenzo[b][1,4]oxazepin-3-yl)-N^2-(3-fluorophenethyl)oxalamide] | A (A: ≥90%)
